# Measured values taken from patent publication US20260250318A1, “COMPOSITIONS AND METHODS FOR CROSSING THE BLOOD BRAIN BARRIER” (VOYAGER THERAPEUTICS, INC., priority 2022, published 2026).
# Tested on: brains, heart, liver, muscle, and DRG of the NHPs
# Experiment: Maturation of TTM-001 and TTM-002 capsids, NGS enrichment in NHP tissues
# Type: in vivo
# Conditions: NGS fold-enrichment; DRG; NHP; relative to AAV9
# Source text: This Example describes maturation of the AAV9 capsid variants, TTM-001 (SEQ ID NO: 981 (amino acid) and 983 (DNA), comprising SEQ ID NO: 941 (encoded by SEQ ID NO: 942)) and TTM-002 (SEQ ID NO: 982 (amino acid) and 984 (DNA), comprising SEQ ID NO: […] (encoded by SEQ ID NO: 944)) in NHPs to further enhance their transduction and biodistribution in the central nervous system as well as other tissues, and evolve the AAV capsid variants to provide further cross-species compatibility. Two approaches were used to mature the TTM-001 and TTM-002 capsid sequences in order to randomize and mutate within and around the peptide insert comprised within loop IV of the capsid variant. […] In the first maturation approach, sets of three contiguous amino acids were randomized across the mutagenesis region in the TTM-001 and TTM-002 sequences, which spanned from position 450 to position 466, numbered according to SEQ ID NO: 981 and 982. In the second maturation approach, mutagenic primers were used to introduce point mutations at a low frequency, scattered across the mutagenesis region in the TTM-001 and TTM-002 sequences ranging from position 449 to position 466, numbered according to SEQ ID NO: 981 and 982. AAV capsid variants arising from each maturation approach for TTM-001 and TTM-002 were pooled together, for subsequent testing and characterization in NHPs.
# The library of pooled matured AAV capsid variants generated using the first maturation approach and the second maturation approach for the TTM-001 and TTM-002 AAV capsid variants were injected into two NHPs. […] Following RNA recovery and RT-PCR amplification, a systematic NGS enrichment analysis was performed to calculate the fold enrichment ratio relative to an AAV9 control, and the peptides comprised within the variants were identified.
# Following the RNA recovery and NGS analysis from the second maturation approach, approximately 680,000 capsid variants were identified. The 680,000 matured capsid variants were then filtered based on samples with a raw virus count greater than 10 and a coefficient of variance (CV) of less than 1, which was calculated for each peptide across the brain samples taken from the two NHPs. […] Using this filtering criteria, this led to approximately 64,000 matured capsid variants.
row,Sequence,"Fold Enrichment relative to AAV9, DRG (NHP) [fold]"
1,KTINGSGSPHGRYQNQQT,0.000

# Same assay, conditions: NGS fold-enrichment; brain; NHP; relative to AAV9
row,Sequence,"Fold Enrichment relative to AAV9, Brain (NHP) [fold]"
1,KTINGSGSPHGRYQNQQT,0.000

# Same assay, conditions: NGS fold-enrichment; heart; NHP; relative to AAV9
row,Sequence,"Fold Enrichment relative to AAV9, Heart (NHP) [fold]"
1,KTINGSGSPHGRYQNQQT,0.000

# Same assay, conditions: NGS fold-enrichment; liver DNA; NHP; relative to AAV9
row,Sequence,"Fold Enrichment relative to AAV9, Liver DNA (NHP) [fold]"
1,KTINGSGSPHGRYQNQQT,0.778

# Same assay, conditions: NGS fold-enrichment; liver RNA; NHP; relative to AAV9
row,Sequence,"Fold Enrichment relative to AAV9, Liver RNA (NHP) [fold]"
1,KTINGSGSPHGRYQNQQT,10.028

# Same assay, conditions: NGS fold-enrichment; muscle; NHP; relative to AAV9
row,Sequence,"Fold Enrichment relative to AAV9, Muscle (NHP) [fold]"
1,KTINGSGSPHGRYQNQQT,0.000

# Same assay, conditions: NHP DRG; NGS; relative to AAV9 control
row,Sequence,"Fold Enrichment relative to AAV9, DRG (NHP) [fold]"
1,KTINGSGSPHSKTRKQQT,0.000
2,KTINGSGSPHSKRHRQQT,0.000
3,KTINWSRSPHSKAQNQQT,0.000
4,KTINGSGSPHLPTQNQQT,0.000
5,KTINGSGSPHCPAQNQQT,0.000
6,KTMQRSGSPHSKAQNQQT,0.000
7,KRFSGSGSPHSKAQNQQT,0.000
8,KTINGSGSPHSLPYNQQT,0.000
9,KTINGSGSPHVPWQNQQT,0.000

# Same assay, conditions: NHP brain; NGS; relative to AAV9 control
row,Sequence,"Fold Enrichment relative to AAV9, Brain (NHP) [fold]"
1,KTINGSGSPHSKTRKQQT,0.000
2,KTINGSGSPHSKRHRQQT,0.000
3,KTINWSRSPHSKAQNQQT,0.000
4,KTINGSGSPHLPTQNQQT,0.000
5,KTINGSGSPHCPAQNQQT,0.000
6,KTMQRSGSPHSKAQNQQT,0.000
7,KRFSGSGSPHSKAQNQQT,0.000
8,KTINGSGSPHSLPYNQQT,0.000
9,KTINGSGSPHVPWQNQQT,0.000

# Same assay, conditions: NHP heart; NGS; relative to AAV9 control
row,Sequence,"Fold Enrichment relative to AAV9, Heart (NHP) [fold]"
1,KTINGSGSPHSKTRKQQT,0.000
2,KTINGSGSPHSKRHRQQT,0.000
3,KTINWSRSPHSKAQNQQT,0.000
4,KTINGSGSPHLPTQNQQT,0.000
5,KTINGSGSPHCPAQNQQT,0.000
6,KTMQRSGSPHSKAQNQQT,0.000
7,KRFSGSGSPHSKAQNQQT,0.000
8,KTINGSGSPHSLPYNQQT,0.000
9,KTINGSGSPHVPWQNQQT,0.000

# Same assay, conditions: NHP liver DNA; NGS; relative to AAV9 control
row,Sequence,"Fold Enrichment relative to AAV9, Liver DNA (NHP) [fold]"
1,KTINGSGSPHSKTRKQQT,2.858
2,KTINGSGSPHSKRHRQQT,4.648
3,KTINWSRSPHSKAQNQQT,5.624
4,KTINGSGSPHLPTQNQQT,3.127
5,KTINGSGSPHCPAQNQQT,1.409
6,KTMQRSGSPHSKAQNQQT,3.159
7,KRFSGSGSPHSKAQNQQT,1.358
8,KTINGSGSPHSLPYNQQT,2.048
9,KTINGSGSPHVPWQNQQT,3.435

# Same assay, conditions: NHP liver RNA; NGS; TTM-001 and TTM-002 matured AAV capsid variants; relative to AAV9 control
row,Sequence,"Fold Enrichment relative to AAV9, Liver RNA (NHP) [fold]"
1,KTINGSGSPHSKTRKQQT,36.010
2,KTINGSGSPHSKRHRQQT,73.225
3,KTINWSRSPHSKAQNQQT,14.399
4,KTINGSGSPHLPTQNQQT,20.704
5,KTINGSGSPHCPAQNQQT,13.359
6,KTMQRSGSPHSKAQNQQT,18.020
7,KRFSGSGSPHSKAQNQQT,11.024
8,KTINGSGSPHSLPYNQQT,14.792
9,KTINGSGSPHVPWQNQQT,25.294

# Same assay, conditions: NHP muscle; NGS; relative to AAV9 control
row,Sequence,"Fold Enrichment relative to AAV9, Muscle (NHP) [fold]"
1,KTINGSGSPHSKTRKQQT,0.000
2,KTINGSGSPHSKRHRQQT,0.000
3,KTINWSRSPHSKAQNQQT,0.000
4,KTINGSGSPHLPTQNQQT,0.000
5,KTINGSGSPHCPAQNQQT,0.000
6,KTMQRSGSPHSKAQNQQT,0.000
7,KRFSGSGSPHSKAQNQQT,0.000
8,KTINGSGSPHSLPYNQQT,0.000
9,KTINGSGSPHVPWQNQQT,0.000
